# What was measured:
# CK2α′ = CK2α′ (Homo sapiens, UniProt P19784); conditions: 36 ng recombinant catalytic subunits
# caspase-3 in 786-O cells = conditions: 72 h, compounds at 20 μM
# [1] = molecular target: ABL1(H396P)-phosphorylated (Homo sapiens, UniProt P00519, H396P); assay: biochemical; conditions: read-out: %Ctrl @ 2000nM
# [2] = molecular target: ABL1(Q252H)-phosphorylated (Homo sapiens, UniProt P00519, Q252H); assay: biochemical; conditions: read-out: %Ctrl @ 2000nM
# ABL1-nonphosphorylated = ABL1-nonphosphorylated (Homo sapiens, UniProt P00519); assay: biochemical; conditions: read-out: %Ctrl @ 2000nM
# ACVR2B = ACVR2B (Homo sapiens, UniProt Q13705); assay: biochemical; conditions: read-out: %Ctrl @ 2000nM
# AKT2 = AKT2 (Homo sapiens, UniProt P31751); assay: biochemical; conditions: read-out: %Ctrl @ 2000nM
# ANKK1 = ANKK1 (Homo sapiens, UniProt Q8NFD2); assay: biochemical; conditions: read-out: %Ctrl @ 2000nM
# ARK5 = ARK5 (Homo sapiens, UniProt O60285); assay: biochemical; conditions: read-out: %Ctrl @ 2000nM
# Chain of ARK5 (O60285 whole entry): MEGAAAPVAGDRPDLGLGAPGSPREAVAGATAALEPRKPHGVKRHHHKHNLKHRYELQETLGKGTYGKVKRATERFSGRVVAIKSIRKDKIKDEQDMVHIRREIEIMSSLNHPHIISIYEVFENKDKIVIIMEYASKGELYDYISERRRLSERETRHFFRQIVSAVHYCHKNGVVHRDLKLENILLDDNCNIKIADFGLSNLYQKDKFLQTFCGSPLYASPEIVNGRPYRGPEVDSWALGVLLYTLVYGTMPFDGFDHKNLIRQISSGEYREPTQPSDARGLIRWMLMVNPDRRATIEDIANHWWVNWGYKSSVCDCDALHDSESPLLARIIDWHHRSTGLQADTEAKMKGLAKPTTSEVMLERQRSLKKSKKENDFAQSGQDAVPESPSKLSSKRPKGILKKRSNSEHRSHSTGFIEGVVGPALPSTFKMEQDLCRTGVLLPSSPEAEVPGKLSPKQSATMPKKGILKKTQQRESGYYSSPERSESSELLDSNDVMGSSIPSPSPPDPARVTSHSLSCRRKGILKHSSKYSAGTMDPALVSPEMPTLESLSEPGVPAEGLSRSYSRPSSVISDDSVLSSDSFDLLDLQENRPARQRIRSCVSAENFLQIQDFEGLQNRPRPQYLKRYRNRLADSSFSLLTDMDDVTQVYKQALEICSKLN
# ASK1 = ASK1 (Homo sapiens, UniProt Q99683); assay: biochemical; conditions: read-out: %Ctrl @ 2000nM
# AURKC = AURKC (Homo sapiens, UniProt Q9UQB9); assay: biochemical; conditions: read-out: %Ctrl @ 2000nM
# Chain of AURKC (Q9UQB9 whole entry): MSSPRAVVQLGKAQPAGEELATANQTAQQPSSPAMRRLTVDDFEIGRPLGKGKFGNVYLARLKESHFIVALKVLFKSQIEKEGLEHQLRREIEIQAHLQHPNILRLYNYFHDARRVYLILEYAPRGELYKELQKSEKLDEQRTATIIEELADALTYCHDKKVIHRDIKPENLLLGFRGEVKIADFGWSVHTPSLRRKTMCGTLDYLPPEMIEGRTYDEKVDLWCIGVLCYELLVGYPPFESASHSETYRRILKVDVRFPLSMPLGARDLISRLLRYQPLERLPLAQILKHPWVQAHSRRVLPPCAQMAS
# CDK3 = CDK3 (Homo sapiens, UniProt Q00526); assay: biochemical; conditions: read-out: %Ctrl @ 2000nM
# Chain of CDK3 (Q00526 whole entry): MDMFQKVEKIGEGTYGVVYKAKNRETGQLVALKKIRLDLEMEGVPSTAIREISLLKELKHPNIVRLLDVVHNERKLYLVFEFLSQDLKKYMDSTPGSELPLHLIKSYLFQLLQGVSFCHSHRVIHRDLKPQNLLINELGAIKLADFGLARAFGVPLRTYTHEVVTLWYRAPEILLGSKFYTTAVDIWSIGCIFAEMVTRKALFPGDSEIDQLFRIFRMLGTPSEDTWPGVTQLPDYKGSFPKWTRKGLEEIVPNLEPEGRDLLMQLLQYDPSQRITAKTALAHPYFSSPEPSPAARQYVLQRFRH
# CDKL3 = CDKL3 (Homo sapiens, UniProt Q8IVW4); assay: biochemical; conditions: read-out: %Ctrl @ 2000nM
# CLK3 = CLK3 (Homo sapiens, UniProt P49761); assay: biochemical; conditions: read-out: %Ctrl @ 2000nM
# EGFR(L858R,T790M) = EGFR(L858R,T790M) (Homo sapiens, UniProt P00533, L858R/T790M); assay: biochemical; conditions: read-out: %Ctrl @ 2000nM
# EGFR(S752-I759del) = EGFR(S752-I759del) (Homo sapiens, UniProt P00533, DEL752-759); assay: biochemical; conditions: read-out: %Ctrl @ 2000nM
# ERK4 = ERK4 (Homo sapiens, UniProt P31152); assay: biochemical; conditions: read-out: %Ctrl @ 2000nM
# FLT1 = FLT1 (Homo sapiens, UniProt P17948); assay: biochemical; conditions: read-out: %Ctrl @ 2000nM
# FLT3(R834Q) = FLT3(R834Q) (Homo sapiens, UniProt P36888, R834Q); assay: biochemical; conditions: read-out: %Ctrl @ 2000nM
# HCK = HCK (Homo sapiens, UniProt P08631); assay: biochemical; conditions: read-out: %Ctrl @ 2000nM
# Chain of HCK (P08631 whole entry): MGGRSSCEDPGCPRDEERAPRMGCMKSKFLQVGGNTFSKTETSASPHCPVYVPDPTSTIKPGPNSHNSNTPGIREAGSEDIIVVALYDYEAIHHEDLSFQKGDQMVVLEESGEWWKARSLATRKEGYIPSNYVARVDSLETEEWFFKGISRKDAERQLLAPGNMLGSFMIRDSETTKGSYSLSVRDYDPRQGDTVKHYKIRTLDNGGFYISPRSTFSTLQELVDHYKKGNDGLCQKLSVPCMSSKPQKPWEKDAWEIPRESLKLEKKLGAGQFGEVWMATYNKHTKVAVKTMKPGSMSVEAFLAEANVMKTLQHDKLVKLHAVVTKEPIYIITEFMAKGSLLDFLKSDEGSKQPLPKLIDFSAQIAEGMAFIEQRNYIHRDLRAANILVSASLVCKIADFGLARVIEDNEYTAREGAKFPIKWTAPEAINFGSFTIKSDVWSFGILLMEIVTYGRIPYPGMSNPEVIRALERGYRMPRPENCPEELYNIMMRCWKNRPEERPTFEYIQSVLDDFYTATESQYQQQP
# HIPK2 = HIPK2 (Homo sapiens, UniProt Q9H2X6); assay: biochemical; conditions: read-out: %Ctrl @ 2000nM
# KIT(V559D) = KIT(V559D) (Homo sapiens, UniProt P10721, V559D); assay: biochemical; conditions: read-out: %Ctrl @ 2000nM
# LRRK2(G2019S) = LRRK2(G2019S) (Homo sapiens, UniProt Q5S007, G2019S); assay: biochemical; conditions: read-out: %Ctrl @ 2000nM
# MAP3K15 = MAP3K15 (Homo sapiens, UniProt Q6ZN16); assay: biochemical; conditions: read-out: %Ctrl @ 2000nM
# MAP4K2 = MAP4K2 (Homo sapiens, UniProt Q12851); assay: biochemical; conditions: read-out: %Ctrl @ 2000nM
# MAP4K4 = MAP4K4 (Homo sapiens, UniProt O95819); assay: biochemical; conditions: read-out: %Ctrl @ 2000nM
# MEK6 = MEK6 (Homo sapiens, UniProt P52564); assay: biochemical; conditions: read-out: %Ctrl @ 2000nM
# MELK = MELK (Homo sapiens, UniProt Q14680); assay: biochemical; conditions: read-out: %Ctrl @ 2000nM
# Chain of MELK (Q14680 whole entry): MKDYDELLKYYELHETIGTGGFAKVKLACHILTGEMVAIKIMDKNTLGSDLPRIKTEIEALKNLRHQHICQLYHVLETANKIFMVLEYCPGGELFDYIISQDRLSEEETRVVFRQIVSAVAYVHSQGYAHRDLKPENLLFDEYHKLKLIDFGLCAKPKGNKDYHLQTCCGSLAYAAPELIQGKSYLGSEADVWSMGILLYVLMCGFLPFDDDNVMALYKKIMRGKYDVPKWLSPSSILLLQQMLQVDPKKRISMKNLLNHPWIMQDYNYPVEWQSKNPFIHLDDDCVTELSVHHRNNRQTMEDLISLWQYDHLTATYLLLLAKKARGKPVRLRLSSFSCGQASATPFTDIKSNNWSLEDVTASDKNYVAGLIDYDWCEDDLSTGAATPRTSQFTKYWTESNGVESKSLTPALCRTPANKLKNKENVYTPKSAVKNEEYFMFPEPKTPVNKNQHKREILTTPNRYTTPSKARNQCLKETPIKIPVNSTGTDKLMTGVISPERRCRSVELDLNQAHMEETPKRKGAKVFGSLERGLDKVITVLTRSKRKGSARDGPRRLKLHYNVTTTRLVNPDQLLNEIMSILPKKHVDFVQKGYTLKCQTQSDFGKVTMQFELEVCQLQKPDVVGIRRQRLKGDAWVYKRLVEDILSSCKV
# MERTK = MERTK (Homo sapiens, UniProt Q12866); assay: biochemical; conditions: read-out: %Ctrl @ 2000nM
# MET = MET (Homo sapiens, UniProt P08581); assay: biochemical; conditions: read-out: %Ctrl @ 2000nM
# MST2 = MST2 (Homo sapiens, UniProt Q13188); assay: biochemical; conditions: read-out: %Ctrl @ 2000nM
# NEK5 = NEK5 (Homo sapiens, UniProt Q6P3R8); assay: biochemical; conditions: read-out: %Ctrl @ 2000nM
# NEK9 = NEK9 (Homo sapiens, UniProt Q8TD19); assay: biochemical; conditions: read-out: %Ctrl @ 2000nM
# PFTK1 = PFTK1 (Homo sapiens, UniProt O94921); assay: biochemical; conditions: read-out: %Ctrl @ 2000nM
# Chain of PFTK1 (O94921 whole entry): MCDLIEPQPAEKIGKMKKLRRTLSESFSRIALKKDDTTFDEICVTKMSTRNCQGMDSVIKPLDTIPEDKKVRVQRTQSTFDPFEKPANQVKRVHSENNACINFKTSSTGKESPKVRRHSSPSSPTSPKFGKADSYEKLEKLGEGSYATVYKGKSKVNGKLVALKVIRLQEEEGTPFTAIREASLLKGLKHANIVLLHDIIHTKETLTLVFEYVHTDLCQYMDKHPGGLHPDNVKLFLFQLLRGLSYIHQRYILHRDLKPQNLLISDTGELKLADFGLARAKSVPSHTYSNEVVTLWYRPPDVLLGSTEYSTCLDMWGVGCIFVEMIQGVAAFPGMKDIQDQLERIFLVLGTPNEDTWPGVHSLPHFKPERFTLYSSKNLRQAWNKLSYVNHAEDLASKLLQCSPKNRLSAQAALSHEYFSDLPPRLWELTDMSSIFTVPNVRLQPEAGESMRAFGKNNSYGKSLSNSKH
# PIK3CA(M1043I) = PIK3CA(M1043I) (Homo sapiens, UniProt P42336, M1043I); assay: biochemical; conditions: read-out: %Ctrl @ 2000nM
# Chain of PIK3CA(M1043I) (P42336 whole entry M1043I): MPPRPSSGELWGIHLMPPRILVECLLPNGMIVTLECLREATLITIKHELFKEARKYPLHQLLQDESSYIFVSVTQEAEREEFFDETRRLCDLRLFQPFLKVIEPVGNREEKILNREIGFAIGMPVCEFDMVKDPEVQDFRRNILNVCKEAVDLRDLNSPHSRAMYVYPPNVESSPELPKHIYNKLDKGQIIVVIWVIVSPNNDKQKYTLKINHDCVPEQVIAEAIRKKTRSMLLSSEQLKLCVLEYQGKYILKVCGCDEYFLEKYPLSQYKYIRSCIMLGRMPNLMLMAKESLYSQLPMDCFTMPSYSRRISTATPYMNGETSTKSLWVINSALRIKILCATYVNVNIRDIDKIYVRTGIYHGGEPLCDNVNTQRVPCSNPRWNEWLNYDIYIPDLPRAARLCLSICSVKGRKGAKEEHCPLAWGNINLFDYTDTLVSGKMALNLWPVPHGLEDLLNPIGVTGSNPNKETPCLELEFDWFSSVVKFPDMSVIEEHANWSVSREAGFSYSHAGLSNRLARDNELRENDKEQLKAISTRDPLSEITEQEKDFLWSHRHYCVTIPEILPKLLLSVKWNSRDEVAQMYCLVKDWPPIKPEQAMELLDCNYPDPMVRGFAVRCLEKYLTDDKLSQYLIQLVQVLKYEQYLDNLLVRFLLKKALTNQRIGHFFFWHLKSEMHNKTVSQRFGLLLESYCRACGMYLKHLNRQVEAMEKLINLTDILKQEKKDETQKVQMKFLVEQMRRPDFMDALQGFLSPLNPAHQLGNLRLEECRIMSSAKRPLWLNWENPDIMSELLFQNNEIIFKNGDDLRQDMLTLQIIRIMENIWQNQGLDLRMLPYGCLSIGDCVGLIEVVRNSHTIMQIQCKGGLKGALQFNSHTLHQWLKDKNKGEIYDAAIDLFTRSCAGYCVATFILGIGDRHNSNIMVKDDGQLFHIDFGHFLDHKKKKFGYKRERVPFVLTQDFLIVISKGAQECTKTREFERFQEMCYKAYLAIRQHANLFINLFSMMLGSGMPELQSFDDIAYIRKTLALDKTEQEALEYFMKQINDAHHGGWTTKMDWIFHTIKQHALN
# PRKCI = PRKCI (Homo sapiens, UniProt P41743); assay: biochemical; conditions: read-out: %Ctrl @ 2000nM
# SgK110 = SgK110 (Homo sapiens, UniProt P0C264); assay: biochemical; conditions: read-out: %Ctrl @ 2000nM
# Chain of SgK110 (P0C264 whole entry): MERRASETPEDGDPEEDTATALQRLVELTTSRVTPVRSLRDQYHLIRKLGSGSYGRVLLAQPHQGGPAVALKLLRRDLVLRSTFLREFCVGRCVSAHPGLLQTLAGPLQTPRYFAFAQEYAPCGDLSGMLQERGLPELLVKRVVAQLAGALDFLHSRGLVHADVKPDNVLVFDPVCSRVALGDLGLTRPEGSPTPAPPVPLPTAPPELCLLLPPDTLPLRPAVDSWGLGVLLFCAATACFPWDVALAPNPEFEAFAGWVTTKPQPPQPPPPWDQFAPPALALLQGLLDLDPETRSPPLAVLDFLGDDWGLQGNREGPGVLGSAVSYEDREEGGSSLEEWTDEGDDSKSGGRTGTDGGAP
# SIK2 = SIK2 (Homo sapiens, UniProt Q9H0K1); assay: biochemical; conditions: read-out: %Ctrl @ 2000nM
# TAOK1 = TAOK1 (Homo sapiens, UniProt Q7L7X3); assay: biochemical; conditions: read-out: %Ctrl @ 2000nM
# ULK1 = ULK1 (Homo sapiens, UniProt O75385); assay: biochemical; conditions: read-out: %Ctrl @ 2000nM
# YANK3 = YANK3 (Homo sapiens, UniProt Q86UX6); assay: biochemical; conditions: read-out: %Ctrl @ 2000nM
# YES = YES (Homo sapiens, UniProt P07947); assay: biochemical; conditions: read-out: %Ctrl @ 2000nM
# Chain of CK2α′ (P19784 whole entry): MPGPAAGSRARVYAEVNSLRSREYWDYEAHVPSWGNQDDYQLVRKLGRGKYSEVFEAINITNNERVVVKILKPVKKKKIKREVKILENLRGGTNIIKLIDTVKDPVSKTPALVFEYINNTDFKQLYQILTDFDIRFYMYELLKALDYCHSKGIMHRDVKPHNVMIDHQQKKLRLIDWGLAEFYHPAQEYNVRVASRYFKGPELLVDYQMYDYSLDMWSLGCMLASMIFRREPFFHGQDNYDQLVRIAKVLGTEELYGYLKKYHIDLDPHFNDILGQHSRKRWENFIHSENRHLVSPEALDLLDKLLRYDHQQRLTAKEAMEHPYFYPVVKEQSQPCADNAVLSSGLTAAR
smiles,measurement,setting,value
"CC(C)COC(=O)c1[nH]c2ccc(F)cc2c1-c1cn(CC2CCN(CCNS(=O)(=O)c3ccc(CC(C)C)cc3)CC2)nn1 [AB668, isobutyl 5-fluoro-3-(1-((1-(2-((4-isobutylphenyl)sulfonamido)ethyl)piperidin-4-yl)methyl)-1H-1,2,3-triazol-4-yl)-1H-indole-2-carboxylate]",efficacy on the catalytic activity of CK2α and CK2α′,CK2α′,very similar efficacy
same,caspase-3 activation,caspase-3 in 786-O cells,induced caspase-3 activation
same,remaining activity at 2 µM,[1],80%
same,remaining activity at 2 µM,[2],86%
same,remaining activity at 2 µM,ABL1-nonphosphorylated,96%
same,remaining activity at 2 µM,ACVR2B,92%
same,remaining activity at 2 µM,AKT2,97%
same,remaining activity at 2 µM,ANKK1,100%
same,remaining activity at 2 µM,ARK5,83%
same,remaining activity at 2 µM,ASK1,100%
same,remaining activity at 2 µM,AURKC,100%
same,remaining activity at 2 µM,CDK3,100%
same,remaining activity at 2 µM,CDKL3,88%
same,remaining activity at 2 µM,CLK3,79%
same,remaining activity at 2 µM,"EGFR(L858R,T790M)",83%
same,remaining activity at 2 µM,EGFR(S752-I759del),80%
same,remaining activity at 2 µM,ERK4,84%
same,remaining activity at 2 µM,FLT1,85%
same,remaining activity at 2 µM,FLT3(R834Q),77%
same,remaining activity at 2 µM,HCK,96%
same,remaining activity at 2 µM,HIPK2,100%
same,remaining activity at 2 µM,KIT(V559D),98%
same,remaining activity at 2 µM,LRRK2(G2019S),86%
same,remaining activity at 2 µM,MAP3K15,51%
same,remaining activity at 2 µM,MAP4K2,100%
same,remaining activity at 2 µM,MAP4K4,96%
same,remaining activity at 2 µM,MEK6,83%
same,remaining activity at 2 µM,MELK,100%
same,remaining activity at 2 µM,MERTK,96%
same,remaining activity at 2 µM,MET,100%
same,remaining activity at 2 µM,MST2,97%
same,remaining activity at 2 µM,NEK5,84%
same,remaining activity at 2 µM,NEK9,94%
same,remaining activity at 2 µM,PFTK1,84%
same,remaining activity at 2 µM,PIK3CA(M1043I),100%
same,remaining activity at 2 µM,PRKCI,85%
same,remaining activity at 2 µM,SgK110,71%
same,remaining activity at 2 µM,SIK2,100%
same,remaining activity at 2 µM,TAOK1,100%
same,remaining activity at 2 µM,ULK1,77%
same,remaining activity at 2 µM,YANK3,92%
same,remaining activity at 2 µM,YES,100%
